Test results reported in article doi:10.1101/2020.09.17.301234v1, “Molecular and functional characterization of buffalo nasal epithelial odorant binding proteins and their structural insights by in-silico and biochemical approach” (biorxiv, 2020).

Tests used:
Type in all cases: binding, Bubalus bubalis
[1] = target: T1, OBP1a (bnOBP isoform 1a; also printed 1OBPa); experiment: competitive 1-NPN displacement fluorescence; conditions: 2 µM protein, 2 µM 1-NPN, 50 mM Tris-HCl, 300 mM NaCl, pH 8.0; competitive with 1-NPN
T1 construct: gene OBP
Text: competitive 1-NPN displacement fluorescence on OBP1a (bnOBP isoform 1a; also printed 1OBPa)

[2] = target: T1, OBP1a (bnOBP isoform 1a; also printed 1OBPa); experiment: competitive 1-NPN displacement fluorescence; conditions: 2 µM protein, 2 µM 1-NPN, 50 mM Tris-HCl, 300 mM NaCl, pH 8.0; competitive with 1-NPN; remark: listed apart in the source
[3] = target: T1, OBP1a (bnOBP isoform 1a; also printed 1OBPa); experiment: fluorescence titration; conditions: 50 mM Tris-HCl, 300 mM NaCl, pH 8.0; 2 µM protein; fluorescent probe; read-out: dissociation constant

| Structure (SMILES) | Ki [1] [µM] | Ki [2] [µM] | Kd [3] [µM] |
| --- | --- | --- | --- |
| Cc1ccc(O)cc1 [p-cresol] | 266 | 3.5 |  |
| CCCCCCCC/C=C\CCCCCCCC(=O)O [oleic acid] |  | 4.2 |  |
| c1ccc(Nc2cccc3ccccc23)cc1 [N-phenyl-1-naphthylamine] |  |  | 0.7 |
